Counter-ions that a name gives are not always drawn.
Assays:
[1] = assay type: physicochemical; settings: control solutions without enzyme
Method: (§1) Compound (IV) was incubated at 37° C. with Vibrio cholerae neuraminidase (450 U/ml) in 0.1M acetate buffer, pH 5.6, containing 0.9% NaCi and 0.1% CaCl2. Neuraminidase cleavage was determined on aliquots taken at intervals by TLC analysis (Merck silica gel plates in propanol/ethanol/25% aqueous ammonia, 2:2:1). Spots were developed by charring the plates with 3% H3 PO4 at 150° C. and quantitated densitometrically. The results are depicted in The FIGURE (v).

[2] = test system: influenza virus B/Singapore/222/79; test: Fetuin binding inhibition assay, influenza virus B/Singapore/222/79; settings: for A^i (absorbance): 492 nm
[3] = test system: influenza virus hemagglutinin; settings: prior art; cited from earlier work
neuraminidase = settings: prior art; cited from earlier work
[4] = test system: influenza virus Taiwan/1/86; test: Fetuin binding inhibition assay, influenza virus Taiwan/1/86; settings: for A^i (absorbance): 492 nm
[5] = test system: influenza virus Texas/1/77; test: Fetuin binding inhibition assay, influenza virus Texas/1/77; settings: for A^i (absorbance): 492 nm
[6] = test system: influenza virus USSR/90/77; test: Fetuin binding inhibition assay, influenza virus USSR/90/77; settings: for A^i (absorbance): 492 nm
[7] = test system: influenza virus USSR/3/85; test: Fetuin binding inhibition assay, influenza virus USSR/3/85; settings: for A^i (absorbance): 492 nm
[8] = test system: influenza virus Philippines/2/82; test: Fetuin binding inhibition assay, influenza virus Philippines/2/82; settings: for A^i (absorbance): 492 nm
[9] = test system: influenza virus Port Chalmers/1/73; test: Fetuin binding inhibition assay, influenza virus Port Chalmers/1/73; settings: for A^i (absorbance): 492 nm
[10] = test system: influenza virus B/Hong Kong/8/73; test: Fetuin binding inhibition assay, influenza virus B/Hong Kong/8/73; settings: for A^i (absorbance): 492 nm
[11] = test system: influenza virus B/USSR/100/83; test: Fetuin binding inhibition assay, influenza virus B/USSR/100/83; settings: for A^i (absorbance): 492 nm
[12] = test system: influenza virus USSR/2/85; test: Fetuin binding inhibition assay, influenza virus USSR/2/85; settings: for A^i (absorbance): 492 nm
[13] = test system: influenza virus England/321/77; test: Fetuin binding inhibition assay, influenza virus England/321/77; settings: for A^i (absorbance): 492 nm
[14] = target: Vibrio cholerae neuraminidase (Vibrio cholerae, UniProt P0C6E9); test: Neuraminidase cleavage (resistance), TLC analysis; assay type: biochemical; settings: 37° C., 450 U/ml, pH 5.6; compared with compound (IV)
Vibrio cholerae neuraminidase, sequence (P0C6E9 25-781): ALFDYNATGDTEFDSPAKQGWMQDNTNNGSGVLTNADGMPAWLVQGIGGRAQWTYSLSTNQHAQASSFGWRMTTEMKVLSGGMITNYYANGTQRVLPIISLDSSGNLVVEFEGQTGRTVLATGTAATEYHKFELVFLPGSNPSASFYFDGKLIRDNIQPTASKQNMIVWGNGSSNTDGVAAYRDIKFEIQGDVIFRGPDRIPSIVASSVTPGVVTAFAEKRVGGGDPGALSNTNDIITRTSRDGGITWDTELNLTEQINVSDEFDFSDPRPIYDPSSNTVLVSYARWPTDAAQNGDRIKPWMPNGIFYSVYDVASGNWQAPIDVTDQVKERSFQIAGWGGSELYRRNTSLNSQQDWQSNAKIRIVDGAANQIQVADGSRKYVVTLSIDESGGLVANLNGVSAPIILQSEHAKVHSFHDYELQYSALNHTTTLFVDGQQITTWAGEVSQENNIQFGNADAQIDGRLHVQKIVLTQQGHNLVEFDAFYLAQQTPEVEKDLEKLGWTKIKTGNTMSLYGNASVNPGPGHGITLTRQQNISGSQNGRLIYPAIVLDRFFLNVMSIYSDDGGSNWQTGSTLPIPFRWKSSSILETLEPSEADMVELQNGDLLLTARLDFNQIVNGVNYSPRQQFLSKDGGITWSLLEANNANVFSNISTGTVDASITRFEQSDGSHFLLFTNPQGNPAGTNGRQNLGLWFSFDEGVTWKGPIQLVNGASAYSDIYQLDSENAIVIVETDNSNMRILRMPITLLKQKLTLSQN
Method: as §1

influenza virus X-31 = test: Fetuin binding inhibition assay, influenza virus X-31; settings: for A^i (absorbance): 492 nm
[15] = test system: influenza virus Chile/1/83; test: Fetuin binding inhibition assay, influenza virus Chile/1/83; settings: for A^i (absorbance): 492 nm
[16] = test system: influenza virus Victoria/3/75; test: Fetuin binding inhibition assay, influenza virus Victoria/3/75; settings: for A^i (absorbance): 492 nm

## CC(=O)NC1C(O)CC(OCc2ccccc2)(C(=O)O)OC1C(O)C(O)CO [IX, benzyl 5-acetamido-3,5-dideoxy-α-D-glycero-D-galacto-nonulopyranosidonic acid (sodium salt), reference compound]
[1]
  Stability in the absence of enzyme: at least 23 hours
[2]; 1.28 mM sialoside
  -lgKd(i): 3.4
  A^i (absorbance): 0.39
[2]; .16 mM sialoside
  -lgKd(i): 3.4
  A^i (absorbance): 0.85
[2]; .32 mM sialoside
  -lgKd(i): 3.3
  A^i (absorbance): 0.76
[2]; .64 mM sialoside
  -lgKd(i): 3.2
  A^i (absorbance): 0.65
[2]; mean over concentrations
  -lgKd ± SD: 3.3 ± 0.1
[3]
  Inhibition of attachment: shows greater inhibition of attachment than 5-acetyl neuraminic acid itself
neuraminidase
  Susceptibility to neuraminidase cleavage: not immune to this cleavage
[4]; 1.28 mM sialoside
  -lgKd(i): 3.0
  A^i (absorbance): 0.22
[4]; .32 mM sialoside
  -lgKd(i): 2.8
  A^i (absorbance): 0.36
[4]; .64 mM sialoside
  -lgKd(i): 2.9
  A^i (absorbance): 0.31
[4]; mean over concentrations
  -lgKd ± SD: 2.9 ± 0.1
[5]; 1.60 mM sialoside
  -lgKd(i): 5.1
  A^i (absorbance): 0.04
[5]; .05 mM sialoside
  -lgKd(i): 4.8
  A^i (absorbance): 0.77
[5]; .10 mM sialoside
  -lgKd(i): 4.9
  A^i (absorbance): 0.55
[5]; .20 mM sialoside
  -lgKd(i): 5.0
  A^i (absorbance): 0.30
[5]; .40 mM sialoside
  -lgKd(i): 4.9
  A^i (absorbance): 0.20
[5]; .80 mM sialoside
  -lgKd(i): 5.0
  A^i (absorbance): 0.09
[5]; mean over concentrations
  -lgKd ± SD: 5.0 ± 0.1
[6]; 1.28 mM sialoside
  -lgKd(i): 2.8
  A^i (absorbance): 0.6
[6]; .16 mM sialoside
  -lgKd(i): 3.1
  A^i (absorbance): 0.8
[6]; .32 mM sialoside
  -lgKd(i): 3.1
  A^i (absorbance): 0.7
[6]; mean over concentrations
  -lgKd ± SD: 3.0 ± 0.17
[7]; 1.28 mM sialoside
  -lgKd(i): 4.5
  A^i (absorbance): 0.06
[7]; .08 mM sialoside
  -lgKd(i): 4.5
  A^i (absorbance): 0.5
[7]; .16 mM sialoside
  -lgKd(i): 4.6
  A^i (absorbance): 0.28
[7]; .32 mM sialoside
  -lgKd(i): 4.6
  A^i (absorbance): 0.16
[7]; .64 mM sialoside
  -lgKd(i): 4.6
  A^i (absorbance): 0.08
[7]; mean over concentrations
  -lgKd ± SD: 4.6 ± 0.05
[8]; .05 mM sialoside
  -lgKd(i): 5.2
  A^i (absorbance): 0.35
[8]; .10 mM sialoside
  -lgKd(i): 5.3
  A^i (absorbance): 0.18
[8]; .20 mM sialoside
  -lgKd(i): 5.4
  A^i (absorbance): 0.08
[8]; .40 mM sialoside
  -lgKd(i): 5.4
  A^i (absorbance): 0.05
[8]; .80 mM sialoside
  -lgKd(i): 5.3
  A^i (absorbance): 0.03
[8]; mean over concentrations
  -lgKd ± SD: 5.3 ± 0.08
[9]; 1.60 mM sialoside
  -lgKd(i): 3.4
  A^i (absorbance): 0.20
[9]; .05 mM sialoside
  -lgKd(i): 3.7
  A^i (absorbance): 0.51
[9]; .10 mM sialoside
  -lgKd(i): 4.1
  A^i (absorbance): 0.36
[9]; .20 mM sialoside
  -lgKd(i): 3.8
  A^i (absorbance): 0.36
[9]; .40 mM sialoside
  -lgKd(i): 3.6
  A^i (absorbance): 0.33
[9]; .80 mM sialoside
  -lgKd(i): 3.5
  A^i (absorbance): 0.28
[9]; mean over concentrations
  -lgKd ± SD: 3.7 ± 0.3
[10]; 1.28 mM sialoside
  -lgKd(i): 3.0
  A^i (absorbance): 0.32
[10]; .32 mM sialoside
  -lgKd(i): 2.7
  A^i (absorbance): 0.55
[10]; .64 mM sialoside
  -lgKd(i): 2.8
  A^i (absorbance): 0.48
[10]; mean over concentrations
  -lgKd ± SD: 2.8 ± 0.15
[11]; 1.28 mM sialoside
  -lgKd(i): 3.1
  A^i (absorbance): 0.9
[11]; .16 mM sialoside
  -lgKd(i): 3.6
  A^i (absorbance): 1.2
[11]; .32 mM sialoside
  -lgKd(i): 3.6
  A^i (absorbance): 1.0
[11]; mean over concentrations
  -lgKd ± SD: 3.4 ± 0.3
[12]; 1.28 mM sialoside
  -lgKd(i): 3.5
  A^i (absorbance): 0.12
[12]; .32 mM sialoside
  -lgKd(i): 3.1
  A^i (absorbance): 0.32
[12]; .64 mM sialoside
  -lgKd(i): 3.3
  A^i (absorbance): 0.25
[12]; mean over concentrations
  -lgKd ± SD: 3.3 ± 0.2
[13]; .08 mM sialoside
  -lgKd(i): 4.4
  A^i (absorbance): 0.49
[13]; .16 mM sialoside
  -lgKd(i): 4.6
  A^i (absorbance): 0.21
[13]; .32 mM sialoside
  -lgKd(i): 4.5
  A^i (absorbance): 0.13
[13]; .64 mM sialoside
  -lgKd(i): 4.8
  A^i (absorbance): 0.04
[13]; mean over concentrations
  -lgKd ± SD: 4.5 ± 0.1
[14]
  Neuraminidase cleavage: cleaved much more rapidly
Influenza virus X-31; 1.28 mM sialoside
  -lgKd(i): 2.8
  A^i (absorbance): 0.66
Influenza virus X-31; .32 mM sialoside
  -lgKd(i): 3.1
  A^i (absorbance): 0.86
Influenza virus X-31; .64 mM sialoside
  -lgKd(i): 2.7
  A^i (absorbance): 0.84
Influenza virus X-31; mean over concentrations
  -lgKd ± SD: 2.9 ± 0.21
[15]; 1.28 mM sialoside
  -lgKd(i): 3.4
  A^i (absorbance): 0.42
[15]; .16 mM sialoside
  -lgKd(i): 3.2
  A^i (absorbance): 0.9
[15]; .32 mM sialoside
  -lgKd(i): 3.4
  A^i (absorbance): 0.72
[15]; .64 mM sialoside
  -lgKd(i): 3.3
  A^i (absorbance): 0.62
[15]; mean over concentrations
  -lgKd ± SD: 3.3 ± 0.1
[16]; 1.60 mM sialoside
  -lgKd(i): 4.2
  A^i (absorbance): 0.09
[16]; .05 mM sialoside
  -lgKd(i): 4.0
  A^i (absorbance): 0.64
[16]; .10 mM sialoside
  -lgKd(i): 4.0
  A^i (absorbance): 0.58
[16]; .20 mM sialoside
  -lgKd(i): 4.05
  A^i (absorbance): 0.45
[16]; .40 mM sialoside
  -lgKd(i): 4.1
  A^i (absorbance): 0.31
[16]; .80 mM sialoside
  -lgKd(i): 4.2
  A^i (absorbance): 0.16
[16]; mean over concentrations
  -lgKd ± SD: 4.1 ± 0.08
